Assay results from paper PMC9673926, “Nucleotide binding as an allosteric regulatory mechanism for Akkermansia muciniphila β-N-acetylhexosaminidase Am2136” (Gut Microbes, 2022).

Experiments:
Am2136 WT = molecular target: T1, Am2136 WT (Akkermansia muciniphila, UniProt B2UPR7); assay: Nucleotide binding affinity by intrinsic fluorescence; details: WT dialyzed
T1 construct: The coding region (residue Q20-L756) of Am2136 without signal peptide was based on UniProt; 6XHis (N); made in house; host or cells: E. coli BL21 (DE3)
T1 sequence (B2UPR7 20-756): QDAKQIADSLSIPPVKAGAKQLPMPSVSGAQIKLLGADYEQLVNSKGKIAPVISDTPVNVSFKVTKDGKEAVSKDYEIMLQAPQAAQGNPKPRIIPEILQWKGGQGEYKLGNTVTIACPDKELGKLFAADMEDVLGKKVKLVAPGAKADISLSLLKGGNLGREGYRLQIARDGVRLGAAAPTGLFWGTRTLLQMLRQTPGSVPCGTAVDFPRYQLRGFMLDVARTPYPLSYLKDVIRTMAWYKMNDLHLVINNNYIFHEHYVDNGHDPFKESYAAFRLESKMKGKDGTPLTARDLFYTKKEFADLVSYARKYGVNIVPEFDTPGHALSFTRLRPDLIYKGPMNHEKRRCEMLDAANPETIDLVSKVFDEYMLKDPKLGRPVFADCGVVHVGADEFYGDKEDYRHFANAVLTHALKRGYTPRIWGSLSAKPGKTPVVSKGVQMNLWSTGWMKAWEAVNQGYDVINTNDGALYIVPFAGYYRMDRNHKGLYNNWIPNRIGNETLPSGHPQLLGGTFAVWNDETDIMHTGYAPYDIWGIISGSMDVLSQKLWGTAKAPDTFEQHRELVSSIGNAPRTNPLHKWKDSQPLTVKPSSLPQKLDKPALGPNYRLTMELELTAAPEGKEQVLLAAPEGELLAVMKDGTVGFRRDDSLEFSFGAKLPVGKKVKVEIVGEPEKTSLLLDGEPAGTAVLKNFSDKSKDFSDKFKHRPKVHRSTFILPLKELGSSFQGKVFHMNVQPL
Experimental: The nucleotide binding ability was determined on Fluorescence Spectrometer Duetta (HORIBA) by measuring the change of peak intensity. The fluorescence was excited at 286 nm and emitted at 336 nm. And the measurement was processed under 400 V voltage with 2.5 nm excitation slit and 5 nm emission slit. […] The sample was incubated at 4°C for 5 min before testing.

Am2136 WT dialyzed = molecular target: T2, Am2136 WT dialyzed (Akkermansia muciniphila, UniProt B2UPR7); assay: Metal ion effect on enzyme hydrolysis activity; format: biochemical; details: for Vmax / kcat/Km: WT dialyzed + 2 mM metal ion, substrate pNP-β-GlcNAc; for effect of metal ion on Am2136 catalytic activity: 2 mM metal ion
T2 construct: The coding region (residue Q20-L756) of Am2136 without signal peptide was based on UniProt; 6XHis (N); made in house; host or cells: E. coli BL21 (DE3)
T2 sequence (B2UPR7 20-756): as above
Experimental: The purified protein was added with the final concentration of 5 mM EDTA and incubated on ice for 20 min. Then the protein was dialyzed with the buffer solution (2 mM EDTA, 25 mM Tris, 150 mM NaCl, 5% Glycerol, pH 8.0) at 4°C for 4 h at a volume ratio of 1:350. After that, the protein was dialyzed with the EDTA-free buffer for 4 h and repeated twice.
The dialyzed protein was incubated with other metal ions on ice for 5 min. The 50 μL reaction mixture contains 2 μM protein, 0.125–4 mM p-nitrophenyl (pNP)-β-GlcNAc, 2 mM metal ions (MgCl2, CaCl2, CuCl2, ZnCl2, CoCl2), 25 mM Tris pH 8.0 and 150 mM NaCl.

Am2136 = molecular target: T3, Am2136 (Akkermansia muciniphila, UniProt B2UPR7); assay: Oligosaccharide hydrolysis, released GlcNAc by HPLC-QqQ-MS; format: biochemical; details: 1.2 mM substrate, 4 μM Am2136, 37°C, 240 min
T3 construct: The coding region (residue Q20-L756) of Am2136 without signal peptide was based on UniProt; 6XHis (N); made in house; host or cells: E. coli BL21 (DE3)
T3 sequence (B2UPR7 20-756): as above
Experimental: The 30 μL reaction mixture contains 1.2 mM oligosaccharides (Sigma), 4 μM proteins, 150 mM NH4Ac pH 8.0. The qualitative and quantitative analyses were performed by high-performance liquid chromatography-tandem triple quadrupole mass spectrometry (HPLC-QqQ-MS) (Agilent 1260 HPLC system and 6460 QqQ system, Agilent Technologies, USA). The separation was performed on a Chromplus C18 column (4.6 × 250 mm, 5 μm) at 25°C. The samples were isocratic eluted with 0.1% formic acid in water and acetonitrile (80:20, v/v) at a flow rate of 0.5 mL/min with an injection volume of 5 μL. The mass spectrometer was operated in the electron spray ionization mode with drying gas temperature of 300°C, N2 gas flow at 11 L/min, nebulizer pressure of 15 psi, and capillary voltage of 4000 V.
Qualitative analysis was carried out by MS2 full-scan mode, while quantitative analysis was performed by multiple reaction monitoring (MRM) in positive ionization mode. Amygdalin (IS) was used as internal standard, and the sample was prepared by adding 20 μL internal standard (116.96 μM) and 170 μL water to 10 μL reaction mixture. The ion transitions were chosen as m/z 222.0→203.9 for GlcNAc and m/z 458.1→296.0 for IS. The fragmentor voltage values of GlcNAc and IS were set to 70 and 130 V, respectively. The collision energies of GlcNAc and IS were set to 1 and 10 eV, respectively. The signal acquisition and peak integration were performed using the MassHunter Qualitative Analysis Software (Agilent, USA). The concentration of GlcNAc in each sample was determined by using the established calibration curve (y = 0.768x + 2.4873) made from the standard compound.

SMILES	effect of metal ion on Am2136 catalytic activity (Am2136 WT dialyzed)	GlcNAc released (Am2136; with 1 mM GDP) [µM]	GlcNAc released (Am2136; without GDP) [µM]	further results
[Ca+2].[Cl-].[Cl-] [Ca^2+, CaCl2]	–	–	–	effect of ion on GDP binding to Am2136 (Am2136 WT): did not exhibit obvious behavioral effect on GDP binding; Vmax (Am2136 WT dialyzed): 447 ± 14 µmol/min; kcat/Km (Am2136 WT dialyzed): 128000 ± 2000 M⁻¹ s⁻¹
[Cl-].[Cl-].[Co+2] [Co^2+, CoCl2]	significant inhibitory effects	–	–	–
[Cl][Cu][Cl] [Cu^2+, CuCl2]	significant inhibitory effects	–	–	–
CC(=O)N[C@H]1[C@H](O[C@@H]2C(O)O[C@H](CO)[C@@H](O)[C@@H]2O)O[C@H](CO)[C@@H](O)[C@@H]1O (stereo partly drawn) [GlcNAc-(β1,2)Man]	–	851.33	671	–
CC(=O)N[C@H]1[C@H](OC[C@H]2O[C@@H](O[C@H]3[C@H](O)[C@@H](O)C(O)O[C@@H]3CO)[C@H](O)[C@@H](O)[C@H]2O)O[C@H](CO)[C@@H](O)[C@@H]1O (stereo partly drawn) [GlcNAc-(β1,6)Gal-(β1,4)Glc]	–	712.55	549	–
CC(=O)N[C@H]1[C@@H](Oc2ccc([N+](=O)[O-])cc2)O[C@H](CO[C@@H]2O[C@H](CO)[C@@H](O)[C@H](O)[C@H]2NC(C)=O)[C@H](O)[C@@H]1O [GlcNAc-(β1,6)GalNAc-α-pNP]	–	451.25	308	–
COC1O[C@H](CO)[C@H](O)[C@H](O[C@@H]2O[C@H](CO)[C@@H](O)[C@H](O)[C@H]2NC(C)=O)[C@H]1O (stereo partly drawn) [Methyl GlcNAc-(β1,3)Gal]	–	610.53	448	–
[Cl-].[Cl-].[Mg+2] [Mg^2+, MgCl2]	–	–	–	effect of ion on GDP binding to Am2136 (Am2136 WT): did not exhibit obvious behavioral effect on GDP binding; Vmax (Am2136 WT dialyzed): 435 ± 9 µmol/min; kcat/Km (Am2136 WT dialyzed): 151000 ± 3000 M⁻¹ s⁻¹
[Cl-].[Cl-].[Zn+2] [Zn^2+, ZnCl2]	significant inhibitory effects	–	–	–
